Read-outs that look alike come from different tables or passages of the source.
Experiments:
[1] = tested on: T-Rex 293 cell line SC3 cells having increased expression of androgen receptor protein due to exposure to doxycycline; experiment: Cellular growth inhibition assay, T-Rex 293 SC3 cells with doxycycline (CellTiter-Glo, 72 hours); assay type: cell-based; details: T-Rex 293 SC3 cells with increased androgen receptor expression due to doxycycline (10 ng/mL)
In short: (§1)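 Doxycycline (10 ng/mL) was either included or omitted to toggle wild-type androgen receptor expression in SC3 cells, a T-Rex 293 clone, grown in stripped-serum, phenol red-free medium. After 72 hours with compound, viable cells were quantified by CellTiter-Glo 2.0.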

[2] = tested on: T-Rex 293 cell line SC3 cells lacking increased expression of androgen receptor protein; experiment: Cellular growth inhibition assay, T-Rex 293 SC3 cells without doxycycline (CellTiter-Glo, 72 hours); assay type: cell-based; details: T-Rex 293 cell line SC3 cells not exposed to doxycycline (lacking increased androgen receptor expression)
In short: as §1

VCaP cells = experiment: Cellular growth inhibition assay for VCaP cells (CellTiter-Glo, 72 hours); assay type: cell-based, human
In short: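 Luminescent viability signal after 72 h of compound exposure gave GI50 values by four-parameter nonlinear regression. Compounds were added in 0.5% DMSO to cells plated 24 h earlier at 5000/well in DMEM containing 10% FBS.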

| GI50 (VCaP cells; Homo sapiens, VCaP, 72 h) [nM] | GI50 (VCaP cells) [nM] | Structure (SMILES) | GI50 ([1]; 72 h) [nM] | GI50 ([2]; 72 h) [nM] | GI50 [2] [nM] | GI50 [1] [nM] |
| --- | --- | --- | --- | --- | --- | --- |
| > 3000 | – | COCC[C@@H]1N=C(c2ccc(N3CCC4(CCCN(c5ccc(C(=O)N[C@H]6CC[C@H](Oc7ccc(C#N)c(Cl)c7)CC6)nn5)C4)CC3)cc2)c2c(sc(C)c2C)-n2c(C)nnc21 [I-569] | < 500 | > 3000 | – | – |
| – | < 500 | COCC1N=C(c2ccc(C#CC3CC4(C3)CN(c3ccc(C(=O)N[C@H]5CC[C@H](Oc6ccc(C#N)c(Cl)c6)CC5)nn3)C4)cc2)c2c(sc(C)c2C)-n2c(C)nnc21 (stereo partly drawn) [I-571] | – | – | < 500 | < 500 |
| < 500 | – | COCC[C@@H]1N=C(c2ccc(C#CC3CC4(C3)CN(c3ccc(C(=O)N[C@H]5CC[C@H](Oc6ccc(C#N)c(Cl)c6)CC5)nn3)C4)cc2)c2c(sc(C)c2C)-n2c(C)nnc21 [I-572] | < 500 | < 500 | – | – |
| < 500 | – | Cc1sc2c(c1C)C(c1ccc(C3CC(N4CCN(c5ccc(C(=O)N[C@H]6CC[C@H](Oc7ccc(C#N)c(Cl)c7)CC6)nn5)CC4)C3)cc1)=NC1(CC1)c1nnc(C)n1-2 (stereo partly drawn) [I-573] | < 500 | < 500 | – | – |
| – | > 3000 | Cc1sc2c(c1C)C(c1ccc(C3CCC4(CCN(c5ccc(C(=O)N[C@H]6CC[C@H](Oc7ccc(C#N)c(Cl)c7)CC6)nn5)CC4)C3)nc1)=N[C@@H](C)c1nnc(C)n1-2 (stereo partly drawn) [I-575] | – | < 500 | – | < 500 |
| – | 500 to 1500 | Cc1sc2c(c1C)C(c1ccc(CC3CCC4(C3)CN(c3ccc(C(=O)N[C@H]5CC[C@H](Oc6ccc(C#N)c(Cl)c6)CC5)nn3)CCO4)cc1)=N[C@@H](C)c1nnc(C)n1-2 (stereo partly drawn) [I-578] | < 500 | – | > 3000 | – |
| – | 1500 to 3000 | Cc1sc2c(c1C)C(c1ccc(CC3CCC4(C3)CN(c3ccc(C(=O)N[C@H]5CC[C@H](Oc6ccc(C#N)c(Cl)c6)CC5)nn3)CCO4)cc1)=N[C@@H](C)c1nnc(C)n1-2 (stereo partly drawn) [I-579] | – | – | < 500 | < 500 |
| – | > 3000 | Cc1sc2c(c1C)C(c1ccc(CC3CCC4(CCCN(c5ccc(C(=O)N[C@H]6CC[C@H](Oc7ccc(C#N)c(Cl)c7)CC6)nn5)C4)C3)cc1)=N[C@@H](C)c1nnc(C)n1-2 (stereo partly drawn) [I-585] | – | – | > 3000 | < 500 |
| 1500 to 3000 | – | Cc1sc2c(c1C)C(c1ccc(OC3CN(C(C)(C)C4CCN(c5ccc(C(=O)N[C@H]6CC[C@H](Oc7ccc(C#N)c(Cl)c7)CC6)nn5)CC4)C3)cc1)=N[C@@H](C)c1nnc(C)n1-2 [I-587] | < 500 | < 500 | – | – |
| > 3000 | – | Cc1sc2c(c1C)C(c1ccc(C3CCC4(CC3)CCN(c3ccc(C(=O)N[C@H]5CC[C@H](Oc6ccc(C#N)c(Cl)c6)CC5)nn3)CC4)cc1)=N[C@@H](C)c1nnc(C)n1-2 [I-590] | < 500 | < 500 | – | – |
| < 500 | – | Cc1sc2c(c1C)C(c1ccc(CCC3CCN(c4ccc(C(=O)NC5CCC(Oc6ccc(C#N)c(Cl)c6)CC5)nn4)CC3)cc1)=NC(C)c1nnc(C)n1-2 (stereo not drawn) [I-593] | < 500 | < 500 | – | – |
| – | < 500 | Cc1sc2c(c1C)C(c1ccc(N3CC(CC4CCCN(c5ccc(C(=O)N[C@H]6CC[C@H](Oc7ccc(C#N)c(Cl)c7)CC6)nn5)C4)C3)cc1)=NC1(CC1)c1nnc(C)n1-2 (stereo partly drawn) [I-598] | < 500 | – | < 500 | – |
| < 500 | – | Cc1sc2c(c1C)C(c1ccc(N3CCC4(CC3)CC(Cc3ccc(C(=O)N[C@H]5CC[C@H](Oc6ccc(C#N)c(Cl)c6)CC5)nn3)C4)cc1)=N[C@@H](C)c1nnc(C)n1-2 [I-605] | < 500 | > 3000 | – | – |
| – | > 3000 | Cc1sc2c(c1C)C(c1ccc(C3CCC4(CC3)CCN(c3ccc(C(=O)N[C@H]5CC[C@H](Oc6ccc(C#N)c(Cl)c6)CC5)nn3)C4)nc1)=NC1(CC1)c1nnc(C)n1-2 (stereo partly drawn) [I-607] | < 500 | – | > 3000 | – |

The remaining lines, values behind:

| Structure (SMILES) | GI50 (VCaP cells; Homo sapiens, VCaP, 72 h) [nM] | GI50 (VCaP cells) [nM] | GI50 ([1]; 72 h) [nM] | GI50 ([2]; 72 h) [nM] | GI50 [2] [nM] | GI50 [1] [nM] |
| --- | --- | --- | --- | --- | --- | --- |
| COCC1N=C(c2ccc(C#CC3CC4(C3)CN(c3ccc(C(=O)N[C@H]5CC[C@H](Oc6ccc(C#N)c(Cl)c6)CC5)nn3)C4)cc2)c2c(sc(C)c2C)-n2c(C)nnc21 (stereo partly drawn) [I-570] | < 500 | – | < 500 | – | > 3000 | – |
| CC[C@@H]1N=C(c2ccc(C3CCC4(CCN(c5ccc(C(=O)N[C@H]6CC[C@H](Oc7ccc(C#N)c(Cl)c7)CC6)nn5)CC4)C3)cc2)c2c(sc(C)c2C)-n2c(C)nnc21 (stereo partly drawn) [I-574] | < 500 | – | < 500 | > 3000 | – | – |
| Cc1sc2c(c1C)C(c1ccc(N3CC(CC4CCCN(c5ccc(C(=O)N[C@H]6CC[C@H](Oc7ccc(C#N)c(Cl)c7)CC6)nn5)C4)C3)cc1)=N[C@@H](C)c1nnc(C)n1-2 (stereo partly drawn) [I-576] | < 500 | – | < 500 | < 500 | – | – |
| Cc1sc2c(c1C)C(c1ccc(N3CC(CC4CCCN(c5ccc(C(=O)N[C@H]6CC[C@H](Oc7ccc(C#N)c(Cl)c7)CC6)nn5)C4)C3)cc1)=N[C@@H](C)c1nnc(C)n1-2 (stereo partly drawn) [I-577] | – | 500 to 1500 | – | – | < 500 | < 500 |
| Cc1sc2c(c1C)C(c1ccc(CC3CCC4(C3)CN(c3ccc(C(=O)N[C@H]5CC[C@H](Oc6ccc(C#N)c(Cl)c6)CC5)nn3)CCO4)cc1)=N[C@@H](C)c1nnc(C)n1-2 (stereo partly drawn) [I-580] | – | < 500 | – | – | < 500 | < 500 |
| Cc1sc2c(c1C)C(c1ccc(CC3CCC4(C3)CN(c3ccc(C(=O)N[C@H]5CC[C@H](Oc6ccc(C#N)c(Cl)c6)CC5)nn3)CCO4)cc1)=N[C@@H](C)c1nnc(C)n1-2 (stereo partly drawn) [I-581] | – | < 500 | – | – | < 500 | < 500 |
| Cc1sc2c(c1C)C(c1ccc(CC3CCC4(CCCN(c5ccc(C(=O)N[C@H]6CC[C@H](Oc7ccc(C#N)c(Cl)c7)CC6)nn5)C4)C3)cc1)=N[C@@H](C)c1nnc(C)n1-2 (stereo partly drawn) [I-582] | > 3000 | – | < 500 | – | < 500 | – |
| Cc1sc2c(c1C)C(c1ccc(CC3CCC4(CCCN(c5ccc(C(=O)N[C@H]6CC[C@H](Oc7ccc(C#N)c(Cl)c7)CC6)nn5)C4)C3)cc1)=N[C@@H](C)c1nnc(C)n1-2 (stereo partly drawn) [I-583] | – | 1500 to 3000 | – | – | < 500 | < 500 |
| Cc1sc2c(c1C)C(c1ccc(CC3CCC4(CCCN(c5ccc(C(=O)N[C@H]6CC[C@H](Oc7ccc(C#N)c(Cl)c7)CC6)nn5)C4)C3)cc1)=N[C@@H](C)c1nnc(C)n1-2 (stereo partly drawn) [I-584] | – | 1500 to 3000 | – | – | < 500 | < 500 |
| Cc1sc2c(c1C)C(c1ccc(COC3CCC4(C3)CN(c3ccc(C(=O)N[C@H]5CC[C@H](Oc6ccc(C#N)c(Cl)c6)CC5)nn3)CCO4)cc1)=N[C@@H](C)c1nnc(C)n1-2 (stereo partly drawn) [I-586] | – | 500 to 1500 | – | < 500 | – | < 500 |
| Cc1sc2c(c1C)C(c1ccc(C3CC(N4CCN(c5ccc(C(=O)N[C@H]6CC[C@H](Oc7ccc(C#N)c(Cl)c7)CC6)nn5)CC4)C3)cc1)=N[C@@H](C)c1nnc(C)n1-2 (stereo partly drawn) [I-589] | < 500 | – | < 500 | < 500 | – | – |
| Cc1sc2c(c1C)C(c1ccc(N3CCC4(CC3)CCN(c3ccc(C(=O)N[C@H]5CC[C@H](Oc6ccc(C#N)c(Cl)c6)CC5)nn3)C4)cc1)=N[C@H](C)c1nnc(C)n1-2 [I-591] | < 500 | – | < 500 | > 3000 | – | – |
| Cc1sc2c(c1C)C(c1ccc(CCCC3CCN(c4ccc(C(=O)N[C@H]5CC[C@H](Oc6ccc(C#N)c(Cl)c6)CC5)nn4)CC3)cc1)=N[C@@H](C)c1nnc(C)n1-2 [I-592] | < 500 | – | < 500 | < 500 | – | – |
| Cc1sc2c(c1C)C(c1ccc(N3CC4(CC(CCc5ccc(C(=O)N[C@H]6CC[C@H](Oc7ccc(C#N)c(Cl)c7)CC6)nn5)C4)C3)cc1)=N[C@@H](C)c1nnc(C)n1-2 [I-594] | 500 to 1500 | – | < 500 | 500 to 1500 | – | – |
| Cc1sc2c(c1C)C(c1ccc(OC3(C)CC4(CN(c5ccc(C(=O)N[C@H]6CC[C@H](Oc7ccc(C#N)c(Cl)c7)CC6)nn5)C4)C3)cc1)=N[C@@H](C)c1nnc(C)n1-2 [I-595] | 500 to 1500 | – | < 500 | < 500 | – | – |
| Cc1sc2c(c1C)C(c1ccc(N3CCC(CCc4ccc(C(=O)N[C@H]5CC[C@H](Oc6ccc(C#N)c(Cl)c6)CC5)nn4)CC3)cc1)=N[C@@H](C)c1nnc(C)n1-2 [I-596] | < 500 | – | < 500 | < 500 | – | – |
| Cc1sc2c(c1C)C(c1ccc(OCC3CC4(CCCN(c5ccc(C(=O)N[C@H]6CC[C@H](Oc7ccc(C#N)c(Cl)c7)CC6)nn5)C4)C3)cn1)=NC1(CC1)c1nnc(C)n1-2 (stereo partly drawn) [I-597] | – | < 500 | – | – | > 3000 | < 500 |
| CC[C@@H]1N=C(c2ccc(N3CCC4(CCN(c5ccc(C(=O)N[C@H]6CC[C@H](Oc7ccc(C#N)c(Cl)c7)CC6)nn5)CC4)C3)cc2)c2c(sc(C)c2C)-n2c(C)nnc21 [I-599] | > 3000 | – | < 500 | > 3000 | – | – |
| COCC[C@@H]1N=C(c2ccc(N3CCC4(CCN(c5ccc(C(=O)N[C@H]6CC[C@H](Oc7ccc(C#N)c(Cl)c7)CC6)nn5)CC4)C3)cc2)c2c(sc(C)c2C)-n2c(C)nnc21 [I-600] | > 3000 | – | < 500 | < 500 | – | – |
| Cc1sc2c(c1C)C(c1ccc(N3CC4(CC(Cc5ccc(C(=O)N[C@H]6CC[C@H](Oc7ccc(C#N)c(Cl)c7)CC6)nn5)C4)C3)cc1)=N[C@@H](C)c1nnc(C)n1-2 [I-604] | < 500 | – | < 500 | < 500 | – | – |
| Cc1sc2c(c1C)C(c1ccc(N3CCC(Cc4ccc(C(=O)N[C@H]5CC[C@H](Oc6ccc(C#N)c(Cl)c6)CC5)nn4)CC3)cc1)=N[C@@H](C)c1nnc(C)n1-2 [I-606] | > 3000 | – | < 500 | > 3000 | – | – |
| Cc1sc2c(c1C)C(c1ccc(C3CCC4(CC3)CCN(c3ccc(C(=O)N[C@H]5CC[C@H](Oc6ccc(C#N)c(Cl)c6)CC5)nn3)C4)nc1)=NC1(CC1)c1nnc(C)n1-2 (stereo partly drawn) [I-608] | – | < 500 | – | – | 500 to 1500 | < 500 |

— patent US20260109707A1, “HETEROBIFUNCTIONAL COMPOUNDS AND METHODS OF TREATING DISEASE” (Halda Therapeutics OpCo. Inc., priority 2022, published 2026)
